{"source": "patent US9062050B2", "about": "“Inhibitor of JAK1 and JAK2” (Eli Lilly and Company, priority 2012, dated 2015)", "key": {"[1]": {"test_system": "phosphorylation of STAT3", "assay": "SUM-159-MSD-pSTAT3 cell-based assay", "details": "SUM159; Sum-159 breast cancer cells, human IL-6 stimulated; read-out: IC50, inhibits the phosphorylation of STAT3", "description": "The SUM-159-MSD-pSTAT3 cell-based assay is used to examine the potency of compounds at blocking STAT3 phosphorylation in breast cancer cells. Sum-159 cells (Asterand) are grown and maintained in HAM's F-12 medium (Gibco 11765-054) with 5% FBS, insulin (5 microgram/mL) and hydrocortisone (1 μg/ml). Cells are collected, counted, plated at 4×10^4 cells/well in 96-well plates, and cultured for overnight at 37° C. with 5% CO2. Culture medium is then removed and replaced with F-12-medium containing either vehicle (DMSO) alone or 2× final concentrations of compounds across a range from 0-20 μM at 1:3 dilutions (10 concentration points). After incubation for five additional hours, medium is removed and cells are treated with 100 microliters of 2× human IL-6 (20 ng/mL diluted in F-12 complete medium) and incubated for an additional 20 minutes at 37° C. in 5% CO2. […] The 96-well plates are sealed and then mixed for 2 minutes on an orbital shaker at room temperature, and then immediately frozen at −80° C. overnight. pSTAT3 is detected with the use of the MA6000 MSD Whole Cell Lysate Kit for Phospho-STAT-3 (Tyr 705) (Meso Scale Diagnostics, #K150DID-2) as described above. Plates are read by using a MSD plate reader. Data are analyzed using Graph Pad program."}, "[2]": {"target": "JAK2 (Homo sapiens, UniProt O60674)", "sequence (O60674 whole entry)": "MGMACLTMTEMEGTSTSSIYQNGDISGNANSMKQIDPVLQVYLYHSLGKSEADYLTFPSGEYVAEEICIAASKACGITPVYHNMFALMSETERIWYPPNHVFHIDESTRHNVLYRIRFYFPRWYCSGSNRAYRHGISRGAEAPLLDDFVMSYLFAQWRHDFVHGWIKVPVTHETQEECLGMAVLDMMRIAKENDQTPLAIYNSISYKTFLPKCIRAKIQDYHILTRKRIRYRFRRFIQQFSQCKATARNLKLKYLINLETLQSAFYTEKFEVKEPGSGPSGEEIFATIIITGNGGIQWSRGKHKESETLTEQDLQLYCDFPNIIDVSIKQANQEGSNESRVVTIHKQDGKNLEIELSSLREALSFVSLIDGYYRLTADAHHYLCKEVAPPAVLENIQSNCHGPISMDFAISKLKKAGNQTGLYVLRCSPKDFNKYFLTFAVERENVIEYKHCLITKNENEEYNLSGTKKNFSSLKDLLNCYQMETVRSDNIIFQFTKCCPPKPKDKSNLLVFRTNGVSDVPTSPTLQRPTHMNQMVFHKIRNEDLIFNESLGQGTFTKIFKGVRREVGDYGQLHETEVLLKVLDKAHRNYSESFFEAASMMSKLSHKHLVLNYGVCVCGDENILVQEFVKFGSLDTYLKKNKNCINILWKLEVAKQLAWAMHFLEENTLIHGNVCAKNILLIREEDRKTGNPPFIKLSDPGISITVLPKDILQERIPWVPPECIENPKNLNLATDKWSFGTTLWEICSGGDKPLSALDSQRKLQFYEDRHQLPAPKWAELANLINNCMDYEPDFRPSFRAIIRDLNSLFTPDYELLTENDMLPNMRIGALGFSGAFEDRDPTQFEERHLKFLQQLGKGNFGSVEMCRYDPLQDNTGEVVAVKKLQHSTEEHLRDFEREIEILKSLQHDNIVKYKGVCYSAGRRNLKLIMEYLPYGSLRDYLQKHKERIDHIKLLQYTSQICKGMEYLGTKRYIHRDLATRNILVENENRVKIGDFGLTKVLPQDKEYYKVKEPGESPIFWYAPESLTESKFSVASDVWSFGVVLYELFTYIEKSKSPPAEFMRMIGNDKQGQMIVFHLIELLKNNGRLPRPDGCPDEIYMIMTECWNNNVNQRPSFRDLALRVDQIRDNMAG", "assay": "JAK2 EPO-TF1/pSTAT5 cell-based assay (Cellomics ArrayScan HCS)", "parameters": "endogenous in cells; host or cells: TF-1 (human erythroid leukemia) cells", "details": "TF-1 cells, EPO at 1.6 U/mL, relative IC50, n=65; read-out: IC50, inhibits JAK2 (pSTAT5)", "excerpt": "The JAK2 EPO-TF1/pSTAT5 cell-based assay mimics the constitutive activation of JAK2-STAT5 in erythroid progenitor cells, which drives the overproduction of red blood cells, a marker of polycythemia vera (PV). Therefore, the EPO-TF1/pSTAT5 cell-based assay enables the evaluation of the JAK2 cellular activity of JAK compounds in vitro.\nTF-1 (human erythroid leukemia) cells are maintained in RPMI 1640 (RPMI-1640 was developed by Moore et. al. at Roswell Park Memorial Institute. The formulation is based on the RPMI-1630 series of media utilizing a bicarbonate buffering system and alterations in the amounts of amino acids and vitamins.) with 10% fetal bovine serum (FBS), 0.075% sodium bicarbonate, 1 mM sodium pyruvate, 1× antibiotic/antimycotic (Invitrogen, Carlsbad, Calif.) and 0.45% glucose. The medium is supplemented with GM-CSF (granulocyte-macrophage colony-stimulating factor) at a final concentration of 2 ng/mL. Cells are kept at 37° C. with 5% CO2. […] TF-1 cells are counted and cells are collected to seed 2×10^7 cells per 96-well plate at a density of 2×10^5 cells per well. […]\nTo perform the assay, serum-starved cells are collected and washed once with unsupplemented RPMI 1640 medium. […] An aliquot of 200 μL of 1 to 10 dilution of Mouse anti-pSTAT5 (pY694) Alexa Fluor 647® in fluorescence activated cell sorting (FACS) buffer is added to the cells. […]"}}}
{"compound": "Cc1cc(Nc2ccc3ncn([C@@H]4CCc5ccc(F)cc54)c3n2)[nH]n1.Cl.Cl", "note": "[Example 1, 3-[(1R)-6-fluoro-2,3-dihydro-1H-inden-1-yl]-N-(3-methyl-1H-pyrazol-5-yl)-3H-imidazo[4,5-b]pyridin-5-amine dihydrochloride]", "values": [{"measurement": "IC50", "setting": "[1]", "value": 21, "unit": "nM"}, {"measurement": "IC50", "setting": "[2]", "value": 35, "unit": "nM"}]}
